Source: ChEMBL document CHEMBL1201862, “PubChem BioAssay data set” (2004)
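Tested at 5 concentrations; 48 h exposure; 96-well plates; endpoints linearly interpolated, else capped at highest concentration. Here, GI50 denotes the concentration required for 50% inhibition of growth.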 Active and inactive are the calls of the source. Cut-off read from the data, not from the text of the source: active = GI50 up to about 1.1 µM and inactive = higher.

Columns and labels:
Assay in all cases: DTP human tumour cell line panel, 48 h
CAKI-1 = tested on: CAKI-1
SNB-19 = tested on: SNB-19
786-0 = tested on: 786-0
Malme-3M = tested on: Malme-3M
NCI-H23 = tested on: NCI-H23
A549 = tested on: A549
OVCAR-5 = tested on: OVCAR-5
MDA-N = tested on: MDA-N
HT-29 = tested on: HT-29
NCI-H460 = tested on: NCI-H460
SW-620 = tested on: SW-620
LOX IMVI = tested on: LOX IMVI
SK-MEL-28 = tested on: SK-MEL-28
RXF 393 = tested on: RXF 393
SK-MEL-2 = tested on: SK-MEL-2
NCI-H522 = tested on: NCI-H522
SN12C = tested on: SN12C
RPMI-8226 = tested on: RPMI-8226
SR = tested on: SR
K562 = tested on: K562

SMILES	GI50 (CAKI-1)	GI50 (SNB-19)	GI50 (786-0)	GI50 (Malme-3M)	GI50 (NCI-H23)	GI50 (A549)	GI50 (OVCAR-5)	GI50 (MDA-N)	GI50 (HT-29)	GI50 (NCI-H460)	GI50 (SW-620)	GI50 (LOX IMVI)	GI50 (SK-MEL-28)	GI50 (RXF 393)	GI50 (SK-MEL-2)	GI50 (NCI-H522)	GI50 (SN12C)	GI50 (RPMI-8226)	GI50 (SR)	GI50 (K562)
CC(C)(C)CNCCO	> 100 µM (inactive)	> 100 µM (inactive)	> 100 µM (inactive)	> 100 µM (inactive)	> 100 µM (inactive)	> 100 µM (inactive)	> 100 µM (inactive)	> 100 µM (inactive)	> 100 µM (inactive)	> 100 µM (inactive)	> 100 µM (inactive)	> 100 µM (inactive)	> 100 µM (inactive)	> 100 µM (inactive)	> 100 µM (inactive)	> 100 µM (inactive)	> 100 µM (inactive)	> 100 µM (inactive)	–	–
COc1cc2c(cc1OC)-c1[nH]c3ccc([N+](=O)[O-])cc3c1CC(=O)N2	2.89 µM (inactive)	6.84 µM (inactive)	2.35 µM (inactive)	–	4.33 µM (inactive)	2.46 µM (inactive)	3.78 µM (inactive)	4.48 µM (inactive)	3.83 µM (inactive)	1.95 µM (inactive)	0.849 µM (active)	1.55 µM (inactive)	6.19 µM (inactive)	1.43 µM (inactive)	3.7 µM (inactive)	–	2.37 µM (inactive)	3.6 µM (inactive)	0.278 µM (active)	1.3 µM (inactive)
CCOC(=O)Cc1csc2[n+]1C(=O)/C(=C\c1cccc(Cl)c1Cl)S2	23.6 µM (inactive)	21 µM (inactive)	15.8 µM (inactive)	–	13.3 µM (inactive)	14.8 µM (inactive)	32.6 µM (inactive)	17.7 µM (inactive)	21.8 µM (inactive)	14.9 µM (inactive)	18.6 µM (inactive)	18.4 µM (inactive)	19.5 µM (inactive)	16.7 µM (inactive)	10.6 µM (inactive)	14.8 µM (inactive)	16.2 µM (inactive)	–	–	–
O=c1[nH]nc(-c2ccccc2)n1/N=C/c1c(O)ccc2ccccc12	–	24.9 µM (inactive)	31.3 µM (inactive)	–	26.8 µM (inactive)	24.9 µM (inactive)	> 100 µM (inactive)	73.6 µM (inactive)	86.5 µM (inactive)	–	37.8 µM (inactive)	46.9 µM (inactive)	75.7 µM (inactive)	23.8 µM (inactive)	62.7 µM (inactive)	91.2 µM (inactive)	45.3 µM (inactive)	82.2 µM (inactive)	72.6 µM (inactive)	60 µM (inactive)
C[C@@H]1OC(=O)C[C@H]2CC(=O)N(CCC3CN(C(=O)c4ccccc4)c4ccccc43)C[C@@H]21 (stereo partly specified)	> 100 µM (inactive)	> 100 µM (inactive)	> 100 µM (inactive)	> 100 µM (inactive)	> 100 µM (inactive)	> 100 µM (inactive)	> 100 µM (inactive)	> 100 µM (inactive)	> 100 µM (inactive)	> 100 µM (inactive)	> 100 µM (inactive)	–	> 100 µM (inactive)	> 100 µM (inactive)	> 100 µM (inactive)	> 100 µM (inactive)	–	> 100 µM (inactive)	–	> 100 µM (inactive)
C1CC[C@H]2SSC3CCCC[C@H]3SSC2C1 (stereo partly specified)	–	> 100 µM (inactive)	> 100 µM (inactive)	–	> 100 µM (inactive)	> 100 µM (inactive)	> 100 µM (inactive)	> 100 µM (inactive)	> 100 µM (inactive)	> 100 µM (inactive)	> 100 µM (inactive)	> 100 µM (inactive)	> 100 µM (inactive)	–	–	> 100 µM (inactive)	> 100 µM (inactive)	> 100 µM (inactive)	> 100 µM (inactive)	> 100 µM (inactive)
COC(=O)C1Cc2ccc(C)cc2C1=O (stereo unspecified)	> 100 µM (inactive)	> 100 µM (inactive)	> 100 µM (inactive)	> 100 µM (inactive)	> 100 µM (inactive)	> 100 µM (inactive)	> 100 µM (inactive)	> 100 µM (inactive)	> 100 µM (inactive)	> 100 µM (inactive)	> 100 µM (inactive)	> 100 µM (inactive)	> 100 µM (inactive)	–	> 100 µM (inactive)	> 100 µM (inactive)	> 100 µM (inactive)	> 100 µM (inactive)	> 100 µM (inactive)	> 100 µM (inactive)
CCOCc1c(C)cc(C)c(C2C(C(=O)c3ccccc3)N3c4ccccc4C=CC3C2(C#N)C(=O)OCC)c1C (stereo unspecified)	44 µM (inactive)	> 100 µM (inactive)	45 µM (inactive)	–	44.4 µM (inactive)	–	64.9 µM (inactive)	27.4 µM (inactive)	32.3 µM (inactive)	27.9 µM (inactive)	67.3 µM (inactive)	35.9 µM (inactive)	64.6 µM (inactive)	46 µM (inactive)	–	–	61.5 µM (inactive)	81.7 µM (inactive)	82.8 µM (inactive)	> 100 µM (inactive)
O=C(Nc1ccccc1)N(C1=NCC(CI)S1)c1ccc(F)c(F)c1 (stereo unspecified)	24.1 µM (inactive)	> 100 µM (inactive)	43.2 µM (inactive)	55.7 µM (inactive)	29.2 µM (inactive)	26.4 µM (inactive)	> 100 µM (inactive)	24.6 µM (inactive)	27 µM (inactive)	35.2 µM (inactive)	28.2 µM (inactive)	15.2 µM (inactive)	12.4 µM (inactive)	–	23.9 µM (inactive)	–	81.5 µM (inactive)	21.2 µM (inactive)	23.8 µM (inactive)	27 µM (inactive)
COc1cc2nc(Nc3cccc(Br)c3)nc(Nc3cccc(Br)c3)c2cc1OC	15.7 µM (inactive)	16.8 µM (inactive)	17.3 µM (inactive)	19.1 µM (inactive)	17.7 µM (inactive)	17.3 µM (inactive)	23.1 µM (inactive)	18.7 µM (inactive)	18.7 µM (inactive)	24.3 µM (inactive)	24.2 µM (inactive)	16.7 µM (inactive)	17.2 µM (inactive)	18.4 µM (inactive)	18.4 µM (inactive)	16.7 µM (inactive)	16.4 µM (inactive)	–	–	22.8 µM (inactive)
Clc1cc(Br)c2c3c(c(Br)cc(Cl)c13)C(Br)=C2Br	–	> 100 µM (inactive)	22.1 µM (inactive)	27.6 µM (inactive)	–	55.8 µM (inactive)	44.2 µM (inactive)	42.3 µM (inactive)	25.2 µM (inactive)	40.7 µM (inactive)	34.2 µM (inactive)	16.9 µM (inactive)	> 100 µM (inactive)	–	29.9 µM (inactive)	17.2 µM (inactive)	19.5 µM (inactive)	21.6 µM (inactive)	27.9 µM (inactive)	29 µM (inactive)
Cc1c(CNc2ccc(Cl)c(C(=O)NC(CC(=O)O)C(=O)O)c2)ccc2nc(N)nc(N)c12 (stereo unspecified)	< 0.0311 µM (active)	0.322 µM (active)	< 0.01 µM (active)	121 µM (inactive)	0.142 µM (active)	1.33 µM (inactive)	1.4 µM (inactive)	< 0.01 µM (active)	< 0.0208 µM (active)	0.0352 µM (active)	< 0.0175 µM (active)	< 0.0118 µM (active)	10.1 µM (inactive)	> 39.4 µM (inactive)	> 100 µM (inactive)	3.83 µM (inactive)	0.57 µM (active)	> 100 µM (inactive)	–	< 0.12 µM (active)
CCCCCC1=C2C(c3ccc(OC)cc3)=C(N)C(c3ccc(OC)cc3)=C3NC(=O)C(C=C1)C32 (stereo unspecified)	36 µM (inactive)	25.4 µM (inactive)	25 µM (inactive)	19.5 µM (inactive)	48.4 µM (inactive)	29.7 µM (inactive)	> 100 µM (inactive)	61.4 µM (inactive)	> 100 µM (inactive)	28.1 µM (inactive)	49.2 µM (inactive)	33.9 µM (inactive)	> 100 µM (inactive)	18.9 µM (inactive)	> 100 µM (inactive)	22.4 µM (inactive)	74.8 µM (inactive)	33 µM (inactive)	–	42.1 µM (inactive)
COc1c(C)c(C/C=C(\C)CC/C=C(\C)CC/C=C(\C)CCC=C(C)C)c(OC)c(OC)c1OC	> 100 µM (inactive)	> 100 µM (inactive)	> 100 µM (inactive)	–	> 100 µM (inactive)	> 100 µM (inactive)	> 100 µM (inactive)	> 100 µM (inactive)	> 100 µM (inactive)	> 100 µM (inactive)	> 100 µM (inactive)	> 100 µM (inactive)	–	> 100 µM (inactive)	> 100 µM (inactive)	> 100 µM (inactive)	> 100 µM (inactive)	–	> 100 µM (inactive)	> 100 µM (inactive)
C=CCSc1nn(CC=C)cc2ncnc1-2	> 100 µM (inactive)	> 100 µM (inactive)	> 100 µM (inactive)	–	> 100 µM (inactive)	> 100 µM (inactive)	> 100 µM (inactive)	> 100 µM (inactive)	> 100 µM (inactive)	> 100 µM (inactive)	> 100 µM (inactive)	–	> 100 µM (inactive)	> 100 µM (inactive)	> 100 µM (inactive)	–	> 100 µM (inactive)	> 100 µM (inactive)	> 100 µM (inactive)	> 100 µM (inactive)
O=C(O)C1C2OC(C(Br)C2Br)C1C(=O)O (stereo unspecified)	> 100 µM (inactive)	> 100 µM (inactive)	> 100 µM (inactive)	> 100 µM (inactive)	> 100 µM (inactive)	> 100 µM (inactive)	> 100 µM (inactive)	> 100 µM (inactive)	> 100 µM (inactive)	> 100 µM (inactive)	> 100 µM (inactive)	> 100 µM (inactive)	> 100 µM (inactive)	> 100 µM (inactive)	> 100 µM (inactive)	> 100 µM (inactive)	> 100 µM (inactive)	> 100 µM (inactive)	–	> 100 µM (inactive)
